Laboratory results published in patent US20240109912A1, “TRICYCLIC PYRIMIDINES AS CYCLIN-DEPENDENT KINASE 7 (CDK7) INHIBITORS” (JANSSEN PHARMACEUTICA NV, priority 2020, published 2024).
Where “and” joins values, the source holds several entries; their conditions need not be identical. Identical values can stand only once. Like-named read-outs stand apart in the source and are kept apart here.

Assays:
[1] = system: RNA polymerase II Serine 5 phosphorylation (CDK7) in A549 cells
[2] = system: RNA polymerase II Serine 5 phosphorylation in A549 cells overexpressing CDK7 mutant (C312S); test: Imaging-based cellular RNA PolII Ser5 phosphorylation assay in A549 cells overexpressing CDK7-mutant (C312S); assay type: cell-based, human; conditions: for CDK7_ A549 mutant hCDK7(pIC50): A549 cells overexpressing CDK7 mutant (C312S); for IC50: Homo sapiens, A549, A549 cells overexpressing CDK7 mutant (C312S), read-out: CDK7_ A549 mutant hCDK7(pIC50) (converted)
Method: Data were calculated and analyzed in Phaedra.
From this an IC50 value can be obtained.
In parallel this assay was performed in A549 cells overexpressing CDK7-mutant (C312S) to evaluate the effect of the covalent bond on potency and to screen for potential off-target effects. Mutation of Cysteine to Serine (C312S), a less nucleophilic amino acid, prevents CDK7 inhibitors from covalently binding to CDK7 and from inhibiting CDK7 activity in an irreversible manner. A stably transduced A549 cell pool was generated that overexpresses CDK7 mutant (C312S), but also expresses endogenous CDK7-WT. Covalent binders targeting the cysteine at position 312 will show a shift in potency in A549 cells overexpressing mutant C312S CDK7.

[3] = molecular target: CDK7/cyclinH/MAT1 trimeric complex (Homo sapiens (Human), UniProt P50613); test: In vitro CDK7 assay, potency of irreversible covalent inhibitors (kinact/KI)
[4] = CDK7 (20 nM enz.) (KI, μM), 20 nM enz.
[5] = read-out: CDK7 (20 nM enz.) (kinact, s^−1), 20 nM enz.
[6] = read-out: CDK7 (20 nM enz.) (kinact/ KI, M^−1*s^−1), 20 nM enz.
[7] = read-out: CDK7 (kinact, s^−1), Table B
[8] = read-out: CDK7 (kinact/KI, M^−1*s^−1), Table B

CDK7/cyclinH/MAT1 trimeric complex, sequence (P50613 whole entry): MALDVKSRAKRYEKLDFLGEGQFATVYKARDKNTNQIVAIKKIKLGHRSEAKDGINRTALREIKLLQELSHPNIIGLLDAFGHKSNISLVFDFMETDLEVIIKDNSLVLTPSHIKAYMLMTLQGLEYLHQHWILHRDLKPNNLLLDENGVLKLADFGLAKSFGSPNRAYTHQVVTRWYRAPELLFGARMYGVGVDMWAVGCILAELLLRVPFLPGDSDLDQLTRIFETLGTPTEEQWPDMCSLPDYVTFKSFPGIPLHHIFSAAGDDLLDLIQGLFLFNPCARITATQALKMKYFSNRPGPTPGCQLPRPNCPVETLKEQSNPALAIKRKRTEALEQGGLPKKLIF
CDK7/cyclinH/MAT1 trimeric complex, sequence (P51946 whole entry partner): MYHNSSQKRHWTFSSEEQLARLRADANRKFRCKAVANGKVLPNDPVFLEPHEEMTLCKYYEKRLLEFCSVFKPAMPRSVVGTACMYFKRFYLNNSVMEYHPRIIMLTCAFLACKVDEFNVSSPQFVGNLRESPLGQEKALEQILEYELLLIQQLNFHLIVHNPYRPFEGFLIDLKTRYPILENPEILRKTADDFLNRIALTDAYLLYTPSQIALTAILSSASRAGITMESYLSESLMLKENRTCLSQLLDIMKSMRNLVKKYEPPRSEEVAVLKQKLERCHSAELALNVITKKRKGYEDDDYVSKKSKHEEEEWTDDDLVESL
CDK7/cyclinH/MAT1 trimeric complex, sequence (P51948 whole entry partner): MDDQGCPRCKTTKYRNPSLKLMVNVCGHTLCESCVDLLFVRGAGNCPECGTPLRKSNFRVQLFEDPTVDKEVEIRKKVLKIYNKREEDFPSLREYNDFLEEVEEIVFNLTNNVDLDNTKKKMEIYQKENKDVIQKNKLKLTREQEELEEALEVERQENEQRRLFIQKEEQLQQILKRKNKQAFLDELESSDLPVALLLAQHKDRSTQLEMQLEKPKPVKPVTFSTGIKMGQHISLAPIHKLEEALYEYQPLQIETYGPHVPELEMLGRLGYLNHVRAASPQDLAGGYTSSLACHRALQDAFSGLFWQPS

Row | SMILES | IC50 [1] | CDK7_ A549 mutant hCDK7(pIC50) [2] | IC50 [2] | CDK7 (20 nM enz.) (kinact, s^−1) ([3]; 20 nM enz.) | CDK7 (20 nM enz.) (kinact/ KI, M^−1*s^−1) ([3]; 20 nM enz.) | Ki [3, 4] | kinact [3, 5] | kinact/KI [3, 6] | Ki ([3]; CDK7 (KI(μM)), Table B) | kinact [3, 7] | kinact/KI [3, 8]
1 | C=CC(=O)N1CC[C@@H](N2CC(c3cc(C)c4c(c3)Nc3ncnc(N5CCS(=O)(=O)CC5)c3[C@H](C)O4)C2)C1 (single isomer, unassigned) [compound 118] | 204 nM and 339 nM | <5 | > 10000 nM | 5.02e-05 s⁻¹ | 179.017 M⁻¹ s⁻¹ | 0.28 µM and 0.281 µM | 4.2e-05 s⁻¹ | 150 M⁻¹ s⁻¹ |  |  | 
2 | C=CC(=O)N1CC[C@H](N2CC(c3cc4c(c(C)n3)OCc3c(ncnc3N3CCS(=O)(=O)CC3)N4)C2)C1 (single isomer, unassigned) [compound 78] | 5370 nM |  | > 10000 nM |  |  | 0.168 µM | 3.85e-05 s⁻¹ | 229 M⁻¹ s⁻¹ |  |  | 
3 | C=CC(=O)N1CC(N2CC[C@@H](c3cc4c(c(C)n3)OCc3c(ncnc3N3CCS(=O)(=O)CC3)N4)C2)C1 [compound 30] | 1510 nM |  | > 10000 nM |  |  | 0.175 µM | 5.79e-05 s⁻¹ | 330 M⁻¹ s⁻¹ |  |  | 
4 | C=CC(=O)N1CC(N2CCC(c3cc(C)c4c(c3)Nc3ncnc(-c5cn(C)nc5C)c3CO4)CC2)C1 [compound 81] | 363 nM |  | > 10000 nM |  |  | 0.31 µM | 4.82e-05 s⁻¹ | 156 M⁻¹ s⁻¹ |  |  | 
5 | C=CC(=O)N1CC[C@H](N2CCC(c3ccc4c(c3)Nc3ncnc(N5CCOCC5)c3CO4)CC2)C1 [compound 5] | 891 nM |  | ~8910 nM |  |  |  |  |  | 0.595 µM | 0.000243 s⁻¹ | 408 M⁻¹ s⁻¹
6 | C#Cc1cc(C2CN([C@H]3CCN(C(=O)C=C)C3)C2)cc2c1O[C@@H](C)c1c(ncnc1N1CCS(=O)(=O)CC1)N2 [compound 194] | 158 nM |  | > 10000 nM |  |  | 0.0177 µM | 2.42e-05 s⁻¹ | 1370 M⁻¹ s⁻¹ |  |  | 
7 | C=CC(=O)N1CC(N2CC(c3cc(C)c4c(c3)Nc3ncnc(N5CCS(=O)(=O)CC5)c3CO4)C2)C1 [compound 111] | 288 nM |  | > 10000 nM |  |  | 0.112 µM | 0.000116 s⁻¹ | 1030 M⁻¹ s⁻¹ |  |  | 
8 | C#Cc1cc(C2CN([C@H]3CCN(C(=O)C=C)C3)C2)cc2c1O[C@H](C)c1c(ncnc1N1CCS(=O)(=O)CC1)N2 [compound 193] | 513 nM |  | > 10000 nM |  |  | 0.156 µM | 2.62e-05 s⁻¹ | 168 M⁻¹ s⁻¹ |  |  | 
9 | C=CC(=O)N1CC[C@H](N2CC(c3cc(C)c4c(c3)Nc3ncnc(N5CCOCC5)c3CO4)C2)C1 [compound 18] | 380 nM |  | > 10000 nM |  |  | 0.529 µM | 8.2e-05 s⁻¹ | 155 M⁻¹ s⁻¹ |  |  | 
10 | C=CC(=O)NCCN1CCC(c2ccc3c(c2)Nc2ncnc(N4CCOCC4)c2CO3)CC1 [compound 3] | 912 nM |  | > 10000 nM |  |  |  |  |  | 1.03 µM | 0.000166 s⁻¹ | 161 M⁻¹ s⁻¹
11 | C=CC(=O)N1CCC(N2CC(c3cc(C)c4c(c3)Nc3ncnc(N5CCS(=N)(=O)CC5)c3CO4)C2)CC1 [compound 105] | 282 nM |  | > 10000 nM |  |  | 0.121 µM | 3.13e-05 s⁻¹ | 259 M⁻¹ s⁻¹ |  |  | 
12 | C=CC(=O)N1CCC(N2CC[C@@H](c3cc(C)c4c(c3)Nc3ncnc(N5CCOCC5)c3CO4)C2)CC1 [compound 25] | 741 nM |  | > 10000 nM |  |  | 1.22 µM | 6.34e-05 s⁻¹ | 52.1 M⁻¹ s⁻¹ |  |  | 
13 | C=CC(=O)N1CC(N2CCC(c3cc4c(cn3)O[C@H](C)c3c(ncnc3N3CCOCC3)N4)CC2)C1 (single isomer, unassigned) [compound 83] | 138 nM | <5.4 |  | 2.22e-05 s⁻¹ | 376.933 M⁻¹ s⁻¹ | 0.059 µM |  |  |  |  | 
14 | [2H]C1(N2CCC(c3cc(C)c4c(c3)Nc3ncnc(N5CCS(=O)(=O)CC5)c3[C@@H](C)O4)CC2)CN(C(=O)C#CC)C1 [compound 160] | 115 nM |  | > 10000 nM |  |  | 0.0135 µM | 9.88e-05 s⁻¹ | 7340 M⁻¹ s⁻¹ |  |  | 
15 | C=CC(=O)N1CC(N2CC[C@H](c3ccc4c(c3)Nc3ncnc(N5CCOCC5)c3CO4)C2)C1 (single isomer, unassigned) [compound 9] | 2090 nM |  | > 10000 nM |  |  |  |  |  | 0.72 µM | 0.000216 s⁻¹ | 306 M⁻¹ s⁻¹
16 | CC#CC(=O)N1CC(N2CCC(c3cc(C)c4c(c3)Nc3ncnc(N5CCOC6(COC6)C5)c3CO4)CC2)C1 [compound 195] | 102 nM |  | > 10000 nM |  |  | 0.108 µM | 5.21e-05 s⁻¹ | 485 M⁻¹ s⁻¹ |  |  | 
